Measurements taken from ChEMBL document CHEMBL4261648, “Lobaric acid and pseudodepsidones inhibit NF-κB signaling pathway by activation of PPAR-γ” (Bioorg Med Chem, 2018).

Experiments:
[1] = biological target: Toll-like receptor 4 (Homo sapiens) (UniProt O00206); test: Inhibition of TLR4 in human U937-3xkappaB-LUC cells assessed as inhibition of Aggregatibacter actinomycetemcomitans LPS-induced NF-kappaB activation preincubated for 30 mins followed by LPS stimulation and measured after 6 hrs post LPS challenge by Bright-Glo luciferase reporter gene assay relative to control
Toll-like receptor 4 (Homo sapiens), sequence (O00206 whole entry): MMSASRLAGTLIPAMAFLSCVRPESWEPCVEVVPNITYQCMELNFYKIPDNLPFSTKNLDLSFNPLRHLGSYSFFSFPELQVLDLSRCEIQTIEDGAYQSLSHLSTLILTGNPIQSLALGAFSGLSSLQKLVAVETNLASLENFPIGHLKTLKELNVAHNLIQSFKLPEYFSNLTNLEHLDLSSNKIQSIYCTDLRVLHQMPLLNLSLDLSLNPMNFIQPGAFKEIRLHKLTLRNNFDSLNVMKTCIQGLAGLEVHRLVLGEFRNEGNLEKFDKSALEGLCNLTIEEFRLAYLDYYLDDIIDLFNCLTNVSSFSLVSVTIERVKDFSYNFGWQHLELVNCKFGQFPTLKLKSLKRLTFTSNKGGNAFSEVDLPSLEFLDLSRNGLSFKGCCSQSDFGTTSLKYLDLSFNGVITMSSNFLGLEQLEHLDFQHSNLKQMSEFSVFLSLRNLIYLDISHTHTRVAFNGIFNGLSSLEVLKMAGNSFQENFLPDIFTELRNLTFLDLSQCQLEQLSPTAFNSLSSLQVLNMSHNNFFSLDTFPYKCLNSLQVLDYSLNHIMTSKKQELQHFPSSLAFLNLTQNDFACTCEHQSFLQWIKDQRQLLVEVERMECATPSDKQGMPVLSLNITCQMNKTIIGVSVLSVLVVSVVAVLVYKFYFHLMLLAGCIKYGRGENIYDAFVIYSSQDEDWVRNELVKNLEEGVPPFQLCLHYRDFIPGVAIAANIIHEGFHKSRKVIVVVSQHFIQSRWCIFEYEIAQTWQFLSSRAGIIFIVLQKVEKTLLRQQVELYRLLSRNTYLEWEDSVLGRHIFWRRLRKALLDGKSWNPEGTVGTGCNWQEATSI

U-937 [2] = test: Antiinflammatory activity in human U937 cells assessed as inhibition of LPS-induced IL-8 production preincubated for 2 hrs followed by LPS stimulation and measured after 24 hrs post LPS challenge by ELISA; assay type: functional
U-937 [3] = test: Antiinflammatory activity in human U937 cells assessed as inhibition of LPS-induced IL-1beta secretion preincubated for 2 hrs followed by LPS stimulation and measured after 24 hrs post LPS challenge by ELISA; assay type: functional
U-937 [4] = test: Antiinflammatory activity in human U937 cells assessed as inhibition of LPS-induced IL-6 production preincubated for 2 hrs followed by LPS stimulation and measured after 24 hrs post LPS challenge by ELISA; assay type: functional
U-937 [5] = test: Antiinflammatory activity in PMA-differentiated human U937 cells assessed as inhibition of LPS-induced TNFalpha secretion preincubated for 2 hrs followed by LPS stimulation and measured after 24 hrs post LPS challenge by ELISA relative to control; assay type: functional

Structure (SMILES): Cc1ccc(S(=O)(=O)/C=C/C#N)cc1
- inhibition [1]: 99.3%
- inhibition (INH) (U-937 [2]): 99.1%
- inhibition (INH) (U-937 [3]): 95.9%
- inhibition (INH) (U-937 [4]): 99.2%
- inhibition (INH) (U-937 [5]): 99.5%
